Structures are written as SMILES. “Also recorded” adds a separate entry of the source.

This note sets out measurements from patent US11026910B2, “α- and γ-truxillic acid derivatives and pharmaceutical compositions thereof” (The Research Foundation for The State University of New York, priority 2012, dated 2021).

The test system of one test is wild-type HeLa cells. Kind of test: AEA uptake in wild-type HeLa cells. Type of test: cell-based. The procedure:
AEA uptake assays in wild-type and FABP5 knockdown HeLa cells were performed exactly as described (Kaczocha, M. et al. 2012).

The target of another test is T1, rat FAAH (Rattus norvegicus, UniProt P97612).
T1 construct: expressed in transfected cells; host or cells: HeLa
T1 sequence (P97612 1-579): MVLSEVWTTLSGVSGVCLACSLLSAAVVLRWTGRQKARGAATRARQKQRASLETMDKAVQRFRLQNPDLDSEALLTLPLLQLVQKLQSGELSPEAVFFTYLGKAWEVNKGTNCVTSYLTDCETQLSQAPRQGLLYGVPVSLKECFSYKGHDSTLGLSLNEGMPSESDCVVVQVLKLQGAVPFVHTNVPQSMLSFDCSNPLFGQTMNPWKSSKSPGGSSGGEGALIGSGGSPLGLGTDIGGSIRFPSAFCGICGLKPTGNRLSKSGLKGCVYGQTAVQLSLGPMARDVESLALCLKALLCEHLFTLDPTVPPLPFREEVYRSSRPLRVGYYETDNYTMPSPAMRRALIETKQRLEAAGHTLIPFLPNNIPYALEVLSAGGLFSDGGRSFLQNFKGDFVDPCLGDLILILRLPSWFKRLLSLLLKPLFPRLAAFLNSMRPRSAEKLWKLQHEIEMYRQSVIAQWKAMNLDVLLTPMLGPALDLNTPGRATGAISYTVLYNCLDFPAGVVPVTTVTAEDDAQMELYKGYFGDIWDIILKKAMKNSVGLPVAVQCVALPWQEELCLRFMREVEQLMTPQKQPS
The experiment in a line: FAAH enzyme assay, hydrolysis of [14C]AEA in HeLa homogenates. It is filed as biochemical. Particulars: FAAH-transfected HeLa homogenates.

In another test the target is T2, PPARα (Homo sapiens, UniProt Q07869).
T2 construct: expressed in transfected cells; host or cells: HeLa
T2 sequence (Q07869 1-468): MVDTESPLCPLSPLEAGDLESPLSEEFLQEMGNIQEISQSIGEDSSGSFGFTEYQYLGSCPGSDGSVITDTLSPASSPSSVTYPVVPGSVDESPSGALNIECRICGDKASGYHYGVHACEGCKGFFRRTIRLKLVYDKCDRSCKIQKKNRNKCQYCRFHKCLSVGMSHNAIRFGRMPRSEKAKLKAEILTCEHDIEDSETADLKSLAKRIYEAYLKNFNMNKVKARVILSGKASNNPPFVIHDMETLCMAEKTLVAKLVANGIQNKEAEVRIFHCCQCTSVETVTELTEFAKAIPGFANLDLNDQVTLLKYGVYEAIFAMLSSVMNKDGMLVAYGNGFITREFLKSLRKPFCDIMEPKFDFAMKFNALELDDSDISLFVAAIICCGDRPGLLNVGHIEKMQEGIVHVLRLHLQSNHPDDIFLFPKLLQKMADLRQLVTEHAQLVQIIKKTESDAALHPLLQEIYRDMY
Kind of test: PPARα transactivation in HeLa cells. It is filed as cell-based. On the procedure: (§1) PPARα and PPARγ transactivation assays were performed in HeLa cells exactly as described (Kaczocha, M. et al. 2012).

In another test the target is T3, PPARγ (Homo sapiens, UniProt P37231).
T3 construct: expressed in transfected cells; host or cells: HeLa
T3 sequence (P37231 1-505): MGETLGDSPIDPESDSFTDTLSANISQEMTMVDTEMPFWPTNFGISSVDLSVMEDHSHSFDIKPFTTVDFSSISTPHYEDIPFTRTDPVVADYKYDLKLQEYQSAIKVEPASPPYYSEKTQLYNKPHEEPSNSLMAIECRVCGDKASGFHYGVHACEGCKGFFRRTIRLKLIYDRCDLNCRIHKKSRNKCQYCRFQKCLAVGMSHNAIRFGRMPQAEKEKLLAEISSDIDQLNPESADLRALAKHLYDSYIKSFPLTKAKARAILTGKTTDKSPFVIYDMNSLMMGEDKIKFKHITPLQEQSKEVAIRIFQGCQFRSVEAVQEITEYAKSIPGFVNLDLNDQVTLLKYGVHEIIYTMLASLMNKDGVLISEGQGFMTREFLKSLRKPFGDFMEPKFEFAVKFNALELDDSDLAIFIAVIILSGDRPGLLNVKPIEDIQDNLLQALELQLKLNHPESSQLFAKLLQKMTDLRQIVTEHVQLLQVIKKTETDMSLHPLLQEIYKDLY
The experiment in a line: PPARγ transactivation in HeLa cells. It is filed as cell-based. The procedure: as §1

The subject of another test is male C57Bl6 mice. Kind of test: Formalin test. Type of test: in vivo. The procedure:
We used male C57Bl6 mice (22-30 g, Taconic Farms) for all experiments. The animals were group housed at room temperature and kept on a 12:12 hour light:dark cycle with ad libitum access to water and food. The animals were habituated to the experimental room for one week before testing. All experiments were approved by the Stony Brook University Institutional Animal Care and Use Committee. The experimenter was blinded to the treatment conditions of each animal.
Mice were habituated to the observation chamber (Plexiglas box, 25 cm×25 cm×25 cm) for 30 min prior to formalin injection. The mice subsequently received an injection of formalin (2.5% in saline, 20 μl) into the plantar surface of the right hind paw using a 27 gauge needle. The animals were immediately placed back into the observation, chamber and nocifensive behavior (time spent licking or biting the paw) was recorded for 60 min. The formalin test consists of two phases with the first phase (0-5 min) reflecting nociceptor activation and the second phase (15-45 min) reflecting an inflammatory pain response.
Behavioral data are presented as means±S.E.M. for the vehicle and inhibitor-treated groups, each consisting of at least 6 animals. Statistical significance between vehicle and inhibitor groups was determined using unpaired t-tests or one-way ANOVA followed by Dunnett's post hoc analysis. In all cases, differences of p<0.05 were considered significant.

[1] abbreviates: 6 hrs incubation, luciferase reporter.

For `O=C(O)[C@H]1[C@@H](c2ccccc2)[C@@H](C(=O)Oc2cccc3ccccc23)[C@@H]1c1ccccc1` (single isomer, unassigned) [Compound 26, α-2,4-diphenyl-cyclobutane-1,3-dicarboxylic Acid mono-(1-naphthol) Ester], the “cellular AEA uptake / accumulation” value in the test with wild-type HeLa cells is given as “significantly inhibited; also recorded: inhibits”. Also, the “inhibition of FAAH (AEA hydrolysis)” value against rat FAAH is “does not inhibit”. The “activation of PPARα” value on PPARα (setting [1]) is around 2 fold. Besides, the “agonism at PPARα” value on PPARα (compared with GW7647) is recorded as “weak agonist”. At PPARγ (setting [1]), the “activation of PPARγ” value is around 3 fold. Besides, at PPARγ (compared with rosiglitazone), the “agonism at PPARγ” value is “weak agonist”. Also, in the test with male C57Bl6 mice (20 mg/kg, i.p. (FIG. 10A)), the “formalin test first phase (0-5 min) nocifensive behavior” value is listed as “significantly reduced; also recorded: reduces” and the “formalin test second phase (15-45 min) nocifensive behavior” value is “only during the first phase”. For the same compound, in the test on male C57Bl6 mice (FIG. 16B), the “first phase of formalin-induced nociception” value is given as “reduce” and the “second phase of formalin-induced nociception” value is “reduce”.
